Measured values as given in patent publication US4853407A, “Aminoethylcysteine derivatives” (Sanraku Incorporated, priority 1987, dated 1989).

Columns and labels:
[1] = In vivo test on dipeptidase-inhibiting activity (recovery of co-administered antibiotic 88617 in urine); parameters: species or system ddY mice; conditions: mouse, sc; control: antibiotic 88617 alone, 20 mg/kg subcutaneous; urine collected 6 hours; average of five mice; read-out: Recovery ratio of antibiotic 88617 in urine
Protocol: (§1) Five weeks aged ddY mice were grouped five mice for one group, and aqueous solutions containing 80 or 250 mg/ml concentration of the dipeptidase-inhibiting agent of this invention (adjusted with 1N NaOH to pH 7.5) were intravenously administered to the mice. A control group was administered with a same amount of pure water. 3 to 5 minutes after the administration, 0.25 ml of an antibiotic 88617 (M/100 PBS, pH 7.0 solutions) at 5 or 20 mg/kg-mouse were subcutaneously administered to the mice. Six hours after the administration of the antibiotic 88617, all the urines of the mice were collected and the concentrations of the antibiotic 88617 in all the collected urines were measured by disc-agar diffusion method in which Comamonas terrigena was used as test bacteria, and average values of five mice were determined.

dipeptidase [2] = target: T1, dipeptidase (Rattus norvegicus, UniProt P31430); assay: In vitro test on dipeptidase-inhibiting activity (antibiotic PS-5 as substrate, absorbance at 301 nm); format: biochemical; conditions: partially purified dipeptidase from rat kidney; substrate antibiotic PS-5, pH 8.0, 37° C., 5 minutes; read-out: ID50 (the source's name)
T1 construct: to obtain a partially purified sample of dipeptidase; from tissue; host or cells: rat kidney, microsome fraction, trypsin-treated, Triton X-100 solubilised, partially purified
T1 sequence (P31430 17-410): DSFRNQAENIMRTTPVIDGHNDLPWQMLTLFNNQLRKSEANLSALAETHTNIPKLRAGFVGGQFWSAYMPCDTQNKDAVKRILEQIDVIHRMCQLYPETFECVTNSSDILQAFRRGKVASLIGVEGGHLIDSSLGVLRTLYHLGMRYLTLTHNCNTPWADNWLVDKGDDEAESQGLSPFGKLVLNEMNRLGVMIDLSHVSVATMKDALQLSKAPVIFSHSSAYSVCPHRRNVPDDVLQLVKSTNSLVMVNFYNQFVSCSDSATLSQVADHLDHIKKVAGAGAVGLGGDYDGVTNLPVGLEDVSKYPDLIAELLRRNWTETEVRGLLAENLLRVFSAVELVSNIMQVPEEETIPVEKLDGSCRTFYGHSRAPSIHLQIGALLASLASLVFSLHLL
Protocol: Rats were sacrificed by decapitation to bleed, and about 12 g of fresh kidneys were collected. And a microsome fraction was obtained by subcellular fractionating method according to fractional centrifugation of Hogboom (Methods in Enzymology, vol. 1, pages 16-19, Academic Press, New York, 1955). This microsome fraction was treated with 400 μg/ml of trypsin at 0° C. for 16 hours, and then subjected to fractional ultracentrifugation at 10^5 G at 0° C. for 60 minutes.
The resultant precipitate was solubilized by 20 ml of Tris-HCl buffer (20 mM, pH 7.6) containing a surfactant (0.4% Triton® X-100), and subjected to fractional ultracentrifugation at 10^5 G at 0° C. for 60 minutes. […]
The enzyme obtained above ([…]) was preincubated together with 30 μl of an inhibiting agent solution in a cuvette at 37° C. for 5 minutes. […] The reaction was carried out within a cuvette of HITACHI spectrophotometer equipped with a constant temperature device (37° C.), and decreases of absorbance at a wavelength of 301 nm for 5 minutes were determined by a recorder.
By the values obtained above and values from control containing no inhibiting agent, the percent inhibition and ID50 at a predetermined inhibition concentration were determined.

dipeptidase [3] = assay: In vivo test on dipeptidase-inhibiting activity (recovery of co-administered antibiotic 88617 in urine); parameters: species or system ddY mice; conditions: 6 hours, average of five mice
Protocol: as §1

SMILES | dose excreted at 6 h [1] [%] | IC50 (dipeptidase [2]) [µM] | Recovery ratio of antibiotic 88617 in urine when dipeptidase-inhibiting agent was co-administered (dipeptidase [3]; inhibitor 50 mg/kg intravenous in combination with antibiotic 88617 20 mg/kg subcutaneous) [%] | Recovery ratio of antibiotic 88617 in urine when dipeptidase-inhibiting agent was co-administered (dipeptidase [3]; inhibitor 250 mg/kg intravenous in combination with antibiotic 88617 20 mg/kg subcutaneous) [%]
CN=C(CSC1=C(C(=O)O)N2C(=O)C(C(C)F)C2C1)N(C)C (centres unmarked) [Antibiotic 88617, reference compound] | 27.5 | – | – | –
O=C(NCCSC[C@H](NC(=O)c1ccccc1)C(=O)O)c1ccccc1 [Compound No. 1, N-benzoyl-S-(2-benzoylaminoethyl)-L-cysteine] | – | 210 | 38.0 | 57.2
O=C(O)[C@H](CSCCN1C(=O)c2ccccc2C1=O)N1C(=O)c2ccccc2C1=O [Compound No. 2, S-(2-phthalimidethyl)-N-phthaloyl-L-cysteine] | – | 480 | – | –
